Measured values taken from the OligoGym collection.
HELM strings list units from the 5' end as sugar, base in round brackets, then linkage (d deoxyribose, r ribose, m 2'-O-methyl, p phosphodiester). Strings are as the collection lists them; they lack the last nucleoside at the 3' end of the tested compound. [moe] = 2'-O-(2-methoxyethyl) (MOE); [sp] = phosphorothioate linkage; [m5C] = 5-methylcytosine

What follows are substances tested against UBE3A-ATS (assay: mouse, dose not given). Conditions: ASO.
“RNA1{[moe](T)[sp].[moe](G)p.[moe]([m5C])p.[moe](T)p.[moe]([m5C])[sp].d(A)[sp].d(G)[sp].d(T)[sp].d(T)[sp].d(A)[sp].d(G)[sp].d(G)[sp].d(T)[sp].[moe](T)p.[moe](A)p.[moe](G)[sp].[moe](T)}$$$$ (last 3' nucleoside missing)” was tested, and the 3 h FOB score was 6.3 score 0-7.
Work on “RNA1{[moe](T)[sp].[moe](G)p.[moe]([m5C])p.[moe](T)p.[moe]([m5C])p.[moe](A)[sp].d(G)[sp].d(T)[sp].d(T)[sp].d(A)[sp].d(G)[sp].d(G)[sp].d(T)[sp].d(T)[sp].[moe](A)p.[moe](G)[sp].[moe](T)}$$$$ (last 3' nucleoside missing)” yielded a 3 h FOB score of 5.7 score 0-7.
With “RNA1{[moe](T)[sp].[moe](G)p.[moe]([m5C])p.[moe](T)p.[moe]([m5C])p.[moe](A)p.d(G)[sp].d(T)[sp].d(T)[sp].d(A)[sp].d(G)[sp].d(G)[sp].d(T)[sp].d(T)[sp].d(A)[sp].d(G)[sp].[moe](T)p.[moe](G)[sp].[moe]([m5C])}$$$$ (last 3' nucleoside missing)” the 3 h FOB score was 4 score 0-7.
For “RNA1{[moe](T)[sp].[moe](G)p.[moe]([m5C])p.[moe](T)p.[moe]([m5C])p.d(A)[sp].d(G)[sp].d(T)[sp].d(T)[sp].d(A)[sp].d(G)[sp].d(G)[sp].d(T)[sp].d(T)[sp].d(A)[sp].[moe](G)p.[moe](T)p.[moe](G)[sp].[moe]([m5C])}$$$$ (last 3' nucleoside missing)”, the 3 h FOB score was 4.3 score 0-7.
In the case of “RNA1{[moe](T)[sp].[moe](G)p.[moe]([m5C])p.[moe](T)p.d(G)[sp].d(A)[sp].d(T)[sp].d([m5C])[sp].d(A)[sp].d([m5C])[sp].d(A)[sp].d(T)[sp].d(T)[sp].d(A)[sp].[moe]([m5C])p.[moe]([m5C])p.[moe]([m5C])p.[moe](A)[sp].[moe](T)}$$$$ (last 3' nucleoside missing)”, the 3 h FOB score is reported as 0 score 0-7.
“RNA1{[moe](T)[sp].[moe](G)p.[moe]([m5C])p.[moe](T)p.d(T)[sp].d([m5C])[sp].d(A)[sp].d([m5C])[sp].d([m5C])[sp].d(A)[sp].d(T)[sp].d(T)[sp].d(T)[sp].d(T)[sp].[moe](G)p.[moe](A)p.[moe]([m5C])p.[moe]([m5C])[sp].[moe](T)}$$$$ (last 3' nucleoside missing)” gave a 3 h FOB score of 0 score 0-7.
Work on “RNA1{[moe](T)[sp].[moe](G)p.[moe]([m5C])p.[moe](T)p.d([m5C])[sp].d(A)[sp].d(G)[sp].d(T)[sp].d(T)[sp].d(A)[sp].d(G)[sp].d(G)[sp].d(T)[sp].d(T)[sp].[moe](A)p.[moe](G)p.[moe](T)p.[moe](G)[sp].[moe]([m5C])}$$$$ (last 3' nucleoside missing)” yielded a 3 h FOB score of 4 score 0-7.
Substance “RNA1{[moe](T)[sp].[moe](G)p.[moe]([m5C])p.[moe]([m5C])p.[moe](T)p.d(T)[sp].d(T)[sp].d([m5C])[sp].d(T)[sp].d(A)[sp].d(T)[sp].d(T)[sp].d(T)[sp].d([m5C])[sp].d(A)[sp].[moe](G)p.[moe](A)p.[moe]([m5C])[sp].[moe]([m5C])}$$$$ (last 3' nucleoside missing)” has a 3 h FOB score of 2.7 score 0-7.
For “RNA1{[moe](T)[sp].[moe](T)p.[moe](A)p.[moe](A)p.[moe]([m5C])p.d(T)[sp].d(G)[sp].d([m5C])[sp].d(T)[sp].d(T)[sp].d([m5C])[sp].d(A)[sp].d([m5C])[sp].d([m5C])[sp].d(A)[sp].[moe](T)p.[moe](T)p.[moe](T)[sp].[moe](T)}$$$$ (last 3' nucleoside missing)”, the 3 h FOB score was 1 score 0-7.
“RNA1{[moe](T)[sp].[moe](T)p.[moe](A)p.[moe](G)p.[moe](G)p.[moe](T)p.d([m5C])[sp].d(A)[sp].d(A)[sp].d([m5C])[sp].d([m5C])[sp].d(A)[sp].d(A)[sp].d(T)[sp].d(T)[sp].d(T)[sp].[moe](G)p.[moe]([m5C])[sp].[moe](T)}$$$$ (last 3' nucleoside missing)” was tested, and the 3 h FOB score was 0 score 0-7.
Work on “RNA1{[moe](T)[sp].[moe](T)p.[moe](A)p.[moe](G)p.[moe](G)p.d(T)[sp].d(T)[sp].d(A)[sp].d(G)[sp].d(T)[sp].d(G)[sp].d([m5C])[sp].d(A)[sp].d([m5C])[sp].d(A)[sp].[moe](G)p.[moe](A)p.[moe](T)[sp].[moe](A)}$$$$ (last 3' nucleoside missing)” yielded a 3 h FOB score of 6 score 0-7.
“RNA1{[moe](T)[sp].[moe](T)p.[moe](A)p.[moe](G)p.[moe](G)p.d(T)[sp].d([m5C])[sp].d(A)[sp].d(A)[sp].d([m5C])[sp].d([m5C])[sp].d(A)[sp].d(A)[sp].d(T)[sp].d(T)[sp].[moe](T)p.[moe](G)p.[moe]([m5C])[sp].[moe](T)}$$$$ (last 3' nucleoside missing)” gave a 3 h FOB score of 0 score 0-7.
“RNA1{[moe](T)[sp].[moe](T)p.[moe](A)p.[moe](G)p.[moe](G)p.d([m5C])[sp].d(A)[sp].d(A)[sp].d(T)[sp].d(G)[sp].d(G)[sp].d(A)[sp].d([m5C])[sp].d(T)[sp].d(T)[sp].[moe](A)p.[moe](G)p.[moe](T)[sp].[moe](A)}$$$$ (last 3' nucleoside missing)” was tested, and the 3 h FOB score was 1 score 0-7.
“RNA1{[moe](T)[sp].[moe](T)p.[moe](A)p.[moe](G)p.[moe](T)p.d(A)[sp].d(T)[sp].d(G)[sp].d(T)[sp].d([m5C])[sp].d(G)[sp].d(A)[sp].d(G)[sp].d(A)[sp].d(A)[sp].[moe]([m5C])p.[moe](T)p.[moe]([m5C])[sp].[moe](A)}$$$$ (last 3' nucleoside missing)” showed a 3 h FOB score of 5.5 score 0-7.
In the case of “RNA1{[moe](T)[sp].[moe](T)p.[moe](A)p.[moe](G)p.[moe](T)p.d(G)[sp].d(T)[sp].d([m5C])[sp].d(A)[sp].d(T)[sp].d(A)[sp].d(T)[sp].d(G)[sp].d(T)[sp].d(A)[sp].[moe](G)p.[moe]([m5C])p.[moe](A)[sp].[moe](A)}$$$$ (last 3' nucleoside missing)”, the 3 h FOB score is reported as 1 score 0-7.
“RNA1{[moe](T)[sp].[moe](T)p.[moe](A)p.[moe](G)p.[moe]([m5C])p.d([m5C])[sp].d(A)[sp].d(T)[sp].d([m5C])[sp].d(A)[sp].d(T)[sp].d(T)[sp].d(T)[sp].d(T)[sp].d(A)[sp].[moe](T)p.[moe](T)p.[moe]([m5C])[sp].[moe](T)}$$$$ (last 3' nucleoside missing)” showed a 3 h FOB score of 0 score 0-7.
For “RNA1{[moe](T)[sp].[moe](T)p.[moe](A)p.[moe](G)p.d(G)[sp].d(T)[sp].d([m5C])[sp].d(A)[sp].d(A)[sp].d([m5C])[sp].d([m5C])[sp].d(A)[sp].d(A)[sp].d(T)[sp].[moe](T)p.[moe](T)p.[moe](G)p.[moe]([m5C])[sp].[moe](T)}$$$$ (last 3' nucleoside missing)”, the 3 h FOB score was 0 score 0-7.
Substance “RNA1{[moe](T)[sp].[moe](T)p.[moe](A)p.[moe](T)p.[moe](A)p.d(G)[sp].d(G)[sp].d(G)[sp].d(T)[sp].d(G)[sp].d(G)[sp].d(T)[sp].d(T)[sp].d(G)[sp].d(G)[sp].[moe](T)p.[moe](T)p.[moe]([m5C])[sp].[moe](A)}$$$$ (last 3' nucleoside missing)” has a 3 h FOB score of 7 score 0-7.
Substance “RNA1{[moe](T)[sp].[moe](T)p.[moe](A)p.[moe](T)p.[moe](T)p.d(G)[sp].d(G)[sp].d(T)[sp].d([m5C])[sp].d(A)[sp].d(T)[sp].d([m5C])[sp].d(T)[sp].d([m5C])[sp].d(G)[sp].[moe](G)p.[moe](G)p.[moe](T)[sp].[moe](A)}$$$$ (last 3' nucleoside missing)” has a 3 h FOB score of 4 score 0-7.
“RNA1{[moe](T)[sp].[moe](T)p.[moe](A)p.[moe]([m5C])p.[moe](T)p.d([m5C])[sp].d([m5C])[sp].d(T)[sp].d([m5C])[sp].d(T)[sp].d(G)[sp].d(G)[sp].d(T)[sp].d(G)[sp].d(T)[sp].[moe](G)p.[moe]([m5C])p.[moe](T)[sp].[moe](G)}$$$$ (last 3' nucleoside missing)” was tested, and the 3 h FOB score was 3.5 score 0-7.
Substance “RNA1{[moe](T)[sp].[moe](T)p.[moe](G)p.[moe](A)p.[moe](T)p.d([m5C])[sp].d(T)[sp].d(A)[sp].d(T)[sp].d(T)[sp].d(A)[sp].d(T)[sp].d(G)[sp].d(A)[sp].d(G)[sp].[moe](G)p.[moe](G)p.[moe]([m5C])[sp].[moe](A)}$$$$ (last 3' nucleoside missing)” has a 3 h FOB score of 4.7 score 0-7.
With “RNA1{[moe](T)[sp].[moe](T)p.[moe](G)p.[moe](G)[sp].d(T)[sp].d([m5C])[sp].d(A)[sp].d(T)[sp].d([m5C])[sp].d(T)[sp].d([m5C])[sp].d(G)[sp].[moe](G)p.[moe](G)p.[moe](T)p.[moe](A)[sp].[moe](T)}$$$$ (last 3' nucleoside missing)” the 3 h FOB score was 2.3 score 0-7.
For “RNA1{[moe](T)[sp].[moe](T)p.[moe](G)p.[moe](G)p.[moe](T)[sp].d([m5C])[sp].d(A)[sp].d(T)[sp].d([m5C])[sp].d(T)[sp].d([m5C])[sp].d(G)[sp].d(G)[sp].[moe](G)p.[moe](T)p.[moe](A)[sp].[moe](T)}$$$$ (last 3' nucleoside missing)”, the 3 h FOB score was 5 score 0-7.
In the case of “RNA1{[moe](T)[sp].[moe](T)p.[moe](G)p.[moe](G)p.[moe](T)p.[moe]([m5C])[sp].d(A)[sp].d(T)[sp].d([m5C])[sp].d(T)[sp].d([m5C])[sp].d(G)[sp].d(G)[sp].d(G)[sp].[moe](T)p.[moe](A)[sp].[moe](T)}$$$$ (last 3' nucleoside missing)”, the 3 h FOB score is reported as 6.7 score 0-7.
With “RNA1{[moe](T)[sp].[moe](T)p.[moe](G)p.[moe](G)p.[moe](T)p.[moe]([m5C])p.d(A)[sp].d(T)[sp].d([m5C])[sp].d(T)[sp].d([m5C])[sp].d(G)[sp].d(G)[sp].d(G)[sp].d(T)[sp].d(A)[sp].[moe](T)p.[moe](A)[sp].[moe](T)}$$$$ (last 3' nucleoside missing)” the 3 h FOB score was 6.5 score 0-7.
Substance “RNA1{[moe](T)[sp].[moe](T)p.[moe](G)p.[moe](G)p.[moe](T)p.d(A)[sp].d(T)[sp].d(T)[sp].d(G)[sp].d(A)[sp].d([m5C])[sp].d(A)[sp].d([m5C])[sp].d([m5C])[sp].d(T)[sp].[moe]([m5C])p.[moe]([m5C])p.[moe](A)[sp].[moe](A)}$$$$ (last 3' nucleoside missing)” has a 3 h FOB score of 1 score 0-7.
Substance “RNA1{[moe](T)[sp].[moe](T)p.[moe](G)p.[moe](G)p.[moe](T)p.d([m5C])[sp].d(A)[sp].d(T)[sp].d([m5C])[sp].d(T)[sp].d([m5C])[sp].d(G)[sp].d(G)[sp].d(G)[sp].d(T)[sp].[moe](A)p.[moe](T)p.[moe](A)[sp].[moe](T)}$$$$ (last 3' nucleoside missing)” has a 3 h FOB score of 5.7 score 0-7.
